Values of other authors as cited in patent US12048769B2, “Methods for administering weight loss medications” (priority 2006, dated 2024).

What was measured:
[1] = in vivo
[2] = test system: carbonic anhydrase
[3] = test system: patients presenting primary obesity; settings: comparable to marketed weight loss medications
[4] = in vivo; remark: listed apart in the source

For `NCCC(Oc1ccc(C(F)(F)F)cc1)c1ccccc1` (stereo not drawn) [norfluoxetine], the elimination half-life (after long-term use, healthy adults) is listed as 16 days.
In the case of `Cc1cc2c(s1)Nc1ccccc1N=C2N1CCN(C)CC1` [Olanzapine, 2-methyl-4-(4-methyl-1-piperazinyl)-10H-thieno[2,3-b][1,5]benzodiazepine], the “effect of food on bioavailability” value [1] is listed as “not affected by food”, the first pass metabolism [1] is listed as “extensive first pass metabolism” and the kinetics [1] is listed as “linear kinetics”. For the same compound, the “time to steady state plasma concentrations” value [1] was “about a week”.
For `NS(=O)(=O)Cc1noc2ccccc12` [Zonisamide], the “inhibitory effect on carbonic anhydrase” value [2] is listed as “weak inhibitory effect” and the weight loss [3] is listed as “significant weight loss”.
For `CNCCC(Oc1ccc(C(F)(F)F)cc1)c1ccccc1` (stereo not drawn) [Fluoxetine, N-methyl-3-phenyl-3-[4-(trifluoromethyl)phenoxy]-propan-1-amine], the physiological half life [4] is given as “about 24 hours”, the bioavailability (in vivo) is given as “approximately 72%” and the “time to complete excretion” value (in vivo) is given as “several weeks”. For the same compound, the plasma protein binding (mostly albumin) was “highly bound” and the “elimination half-life in liver disease” value (those with liver disease) was “prolonged”.
